Assay results published in article PMC11508362, “Discovery of Novel Thiazole-Based SIRT2 Inhibitors as Anticancer Agents: Molecular Modeling, Chemical Synthesis and Biological Assays” (International Journal of Molecular Sciences, 2024).
Entries after “also recorded” stand apart in the source; their conditions may differ.

Legend:
SIRT2 [1] = biological target: T1, SIRT2 (Homo sapiens, UniProt Q8IXJ6); assay: SIRT2 deacetylase activity, recombinant SIRT2 with acetylated peptide H3K9Ac and NAD+
T1 sequence (Q8IXJ6 1-389): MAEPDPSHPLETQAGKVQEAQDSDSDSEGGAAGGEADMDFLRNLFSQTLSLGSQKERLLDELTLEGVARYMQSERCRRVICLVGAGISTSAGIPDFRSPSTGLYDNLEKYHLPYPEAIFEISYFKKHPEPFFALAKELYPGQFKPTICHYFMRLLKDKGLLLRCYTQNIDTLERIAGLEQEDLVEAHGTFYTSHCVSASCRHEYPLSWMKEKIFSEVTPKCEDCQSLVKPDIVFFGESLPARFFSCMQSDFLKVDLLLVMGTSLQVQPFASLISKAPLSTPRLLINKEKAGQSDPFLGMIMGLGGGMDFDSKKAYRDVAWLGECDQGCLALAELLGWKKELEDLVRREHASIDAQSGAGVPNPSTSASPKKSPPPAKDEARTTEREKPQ
Experimental: The effect of urea derivatives on SIRT2 deacetylase activity was evaluated upon incubation of recombinant SIRT2 with an acetylated peptide (H3K9Ac, a peptide acetylated on Lys 9) and the co-substrate NAD^+.

SIRT6 [2] = biological target: T2, SIRT6 (Homo sapiens, UniProt Q8N6T7); assay: SIRT6 depalmitoylation reaction (H3K9Palm), recombinant protein; assay type: biochemical; details: 150 µM, SD always ≤10%
Experimental: (§1) Next, the selectivity of the compounds for SIRT2 against other sirtuins was also determined. The compounds were tested at the final concentration of 150 µM in the deacetylation reaction of SIRT1, SIRT3 and SIRT6, with this last one being promoted by the addition of the SIRT6 activator MDL-800 and also in the depalmitoylation reaction of SIRT6.

SCC13 cells = assay: Cell viability by sulforhodamine B assay, SCC13; assay type: cell-based; details: 48 h, increasing concentrations
Experimental: (§2) SCC13 and HaCaT cell lines were a kind gift from Prof. Alessio Nencioni (University of Genoa), and cells were maintained in Gibco™ Keratinocyte SFM 1X medium supplied with prequalified human recombinant epidermal growth factor 1–53 (EGF 1–53) and bovine pituitary extract (BPE, CAT# 17005042) (Thermo Fisher Scientific, Milano, Italy), with 50 IU/mL penicillin and 50 μg/mL streptomycin and cultured as in [36]. SCC13 and HaCaT cells were treated for 48 h with the putative SIRT2 inhibitor, and cell viability was analyzed by a sulforhodamine B assay. Briefly, 5000 cells/well were seeded in 96-well plates in triplicate and allowed to adhere overnight. The day after, the medium was replaced with fresh medium containing increasing concentrations of 5a. After 48 h, TCA was added, and samples were processed as previously described.

[3] = system: acetylation of α-tubulin in SCC13 cells; assay: Western blot of α-tubulin acetylation (endogenous SIRT2 inhibition) in SCC13 cells; assay type: cell-based; details: 5 μM, 48 h, Western blot normalized to total α-tubulin
Experimental: To confirm that the effect of 5a on cell viability was due to its ability to inhibit the endogenous SIRT2, Western blot analyses were performed to quantify the level of acetylation of α-tubulin, a direct substrate of SIRT2 enzymatic activity.
SCC13 cells (3 × 10^5) were seeded in 60 mm Petri dishes and left to adhere overnight. The day after, the medium was replaced with a medium containing 5a at a final concentration of 5 µM or the respective amount of DMSO vehicle. After 48 h, the medium was removed, and cells were washed with PBS and lysed by scraping with 100 µL of lysis buffer (25 mM Tris-HCl, pH 7.8; 2 mM DTT; 2 mM EDTA, 10% glycerol; 1% Triton® X-100). The lysate was clarified by centrifugation, and the protein concentration was measured using the Bradford assay. Twenty µg of proteins were loaded on a 10% polyacrylamide gel and then transferred to a nitrocellulose membrane. The membrane was saturated with 5% skim milk powder solution in TBS-Tween 0.05%. To determine the acetylation of alpha-tubulin, membranes were incubated with an anti-acetyl-alpha-tubulin antibody (#5335, Cell Signaling Technology, Danvers, MA, USA), whose signal was normalized on the total amount of alpha-tubulin (#2125, Cell Signaling Technology).

SIRT1 = biological target: T3, SIRT1 (Homo sapiens, UniProt Q96EB6); assay: SIRT1 deacetylation reaction, recombinant protein; assay type: biochemical; details: deacetylase activity, SD always ≤10%
T3 sequence (Q96EB6 1-747): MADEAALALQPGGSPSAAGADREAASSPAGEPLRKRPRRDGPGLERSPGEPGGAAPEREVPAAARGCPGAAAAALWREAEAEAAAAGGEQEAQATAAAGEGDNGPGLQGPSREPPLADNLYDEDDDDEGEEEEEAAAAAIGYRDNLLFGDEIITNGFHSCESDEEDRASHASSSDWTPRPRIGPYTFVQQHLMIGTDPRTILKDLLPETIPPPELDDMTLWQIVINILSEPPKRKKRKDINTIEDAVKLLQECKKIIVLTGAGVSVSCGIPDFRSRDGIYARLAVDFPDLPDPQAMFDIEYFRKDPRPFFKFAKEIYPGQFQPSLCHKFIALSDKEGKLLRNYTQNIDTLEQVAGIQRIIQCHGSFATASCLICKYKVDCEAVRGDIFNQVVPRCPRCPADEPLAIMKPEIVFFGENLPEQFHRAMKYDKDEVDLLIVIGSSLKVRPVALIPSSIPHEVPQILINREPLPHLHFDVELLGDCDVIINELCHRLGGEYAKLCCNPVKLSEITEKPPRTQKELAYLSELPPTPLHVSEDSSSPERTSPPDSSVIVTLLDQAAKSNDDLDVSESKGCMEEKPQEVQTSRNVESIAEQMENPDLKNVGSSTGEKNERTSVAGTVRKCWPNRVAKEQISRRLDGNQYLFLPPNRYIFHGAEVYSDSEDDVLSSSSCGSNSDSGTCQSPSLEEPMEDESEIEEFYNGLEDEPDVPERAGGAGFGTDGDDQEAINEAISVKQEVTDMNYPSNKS
Experimental: as §1

HaCaT cells = assay type: cell-based
Experimental: as §2

SIRT6 [4] = biological target: T2, SIRT6; assay: SIRT6 deacetylation reaction promoted by the SIRT6 activator MDL-800, recombinant protein; assay type: biochemical; details: 150 µM, with SIRT6 activator MDL-800, SD always ≤10%
Experimental: as §1

SIRT3 = biological target: T4, SIRT3 (Homo sapiens, UniProt Q9NTG7); assay: SIRT3 deacetylation reaction, recombinant protein; assay type: biochemical; details: deacetylase activity, SD always ≤10%
T4 sequence (Q9NTG7 1-399): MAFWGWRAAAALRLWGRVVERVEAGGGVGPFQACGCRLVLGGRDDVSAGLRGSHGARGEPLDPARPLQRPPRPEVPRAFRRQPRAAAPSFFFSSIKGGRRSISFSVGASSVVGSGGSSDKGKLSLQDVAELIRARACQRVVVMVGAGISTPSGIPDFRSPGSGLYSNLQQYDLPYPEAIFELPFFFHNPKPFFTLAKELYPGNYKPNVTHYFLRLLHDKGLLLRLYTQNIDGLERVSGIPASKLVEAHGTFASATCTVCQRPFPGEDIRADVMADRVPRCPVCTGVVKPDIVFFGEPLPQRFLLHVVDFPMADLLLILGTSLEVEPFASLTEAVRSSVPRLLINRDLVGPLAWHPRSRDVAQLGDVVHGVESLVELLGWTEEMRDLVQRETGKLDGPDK
Experimental: as §1

SIRT2 [5] = biological target: T1, SIRT2; parameters: method as in PMID 37765125; details: at 150 μM; cited from earlier work

T2 sequence (Q8N6T7 whole entry, species assumed): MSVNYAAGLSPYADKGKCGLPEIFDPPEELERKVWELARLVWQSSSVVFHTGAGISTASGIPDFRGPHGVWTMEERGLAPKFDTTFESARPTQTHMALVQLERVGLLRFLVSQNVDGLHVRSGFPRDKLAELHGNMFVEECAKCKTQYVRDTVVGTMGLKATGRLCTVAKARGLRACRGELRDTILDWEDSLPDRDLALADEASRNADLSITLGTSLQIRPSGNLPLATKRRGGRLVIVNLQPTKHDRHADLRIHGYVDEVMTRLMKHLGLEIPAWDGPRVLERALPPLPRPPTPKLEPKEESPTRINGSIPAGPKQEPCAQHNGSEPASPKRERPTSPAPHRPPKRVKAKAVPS

With `CCOC(=O)c1sc(NC(=O)Nc2cccc(OC)c2)nc1-c1ccc(Br)cc1` [Compound 5a, Ethyl4-(4-bromophenyl)-2-(3-(3-methoxyphenyl)ureido)thiazole-5 carboxylate] the IC50 (SIRT2 [1]) was 9 ± 2 µM, the inhibition at 150 µM (SIRT2 [1]; read-out: % Inhibition SIRT2 (at 150 μM)) was 98 ± 5% and the “% Inhibition SIRT6 (Depalmiotoylase)” value (SIRT6 [2]) was “ni”. For the same compound, the “cell death / toxicity (cell viability, SRB assay)” value (SCC13 cells) was “concentration-dependent toxicity; also recorded: concentration-dependent cell death”, the “level of α-tubulin acetylation vs control cells” value [3] was “increases α-tubulin acetylation; also recorded: increased levels of alpha-tubulin acetylation” and the inhibition at 150 µM (SIRT1) was 100%. For the same compound, the “toxicity (cell viability, SRB assay)” value (HaCaT cells) was “not on the normal keratinocyte cell line HaCaT”, the “% Inhibition SIRT6 (Deacetylase)” value (SIRT6 [4]) was “ni” and the inhibition at 150 µM (SIRT3) was 36%.
For `CCc1ccc(Nc2nc(-c3ccc(Cl)cc3)cs2)cc1SC` [Compound T1], the SIRT2 inhibition percentage (SIRT2 [5]) is given as 100%.
